Experimental data as given in patent US10913983B2, “Sensitivity markers and uses for CDK7 inhibitors in breast cancers” (UNIVERSITY OF SOUTH CAROLINA, priority 2017, dated 2021).
Where two headings read alike, the source gives them in different places.

Key:
ZR751 = conditions: fold change in gene expression, THZ1; cited from earlier work
SKBR3 = test: Cell proliferation MTT assay; type: cell-based
Description: (§1) Cells were seeded in 12-well plates at densities ranging from 10000-30000 cells/well and after 24 hours cells were treated with 10, 40 and 100 nM THZ1 in triplicate. After 7 days the cells were imaged using Zeiss Axiovert 200 microscope using a 20× objective lens. Additionally, cells were plated in 96-well plates at a density of 2000 cells/well and after 24 hours treated with 0-10 μM THZ1. After 2 and 7 days the growth of the cells was measured by MTT assay.
(§2) All results were presented as mean±standard deviation of 4-8 parallel assessments. Similar results were obtained from a minimum of two independent experiments. […] Densitometry was performed on duplicate immunoblots using ImageLab software (Biorad) and normalized to tubulin loading controls and then correlated with the THZ1 IC50 values of each cell line. Statistical analyses were performed using SPSS 18.0 (SPSS Inc). Bi-variant scatter graphs and Spearman rank analyses were performed to evaluate associations between protein levels, mRNA and response to inhibition. IC50 values were calculated for MTT assays using CompuSyn software.

MCF7 = test: Cell proliferation MTT assay; type: cell-based
Description: as §1, §2

ZR-75-1 = test: Cell proliferation MTT assay; type: cell-based
Description: as §1, §2

BT549 = test: Cell proliferation MTT assay; type: cell-based
Description: as §1, §2

MDA-MB-453 = test: Cell proliferation MTT assay; type: cell-based
Description: as §1, §2

MDA-MB-231 = test: Cell proliferation MTT assay; type: cell-based
Description: as §1, §2

HCC1954 = test: Cell proliferation MTT assay; type: cell-based
Description: as §1, §2

JIMT-1 = test: Cell proliferation MTT assay; type: cell-based; conditions: for IC50: MTT
Description: as §1, §2

HCC1937 = test: Cell proliferation MTT assay; type: cell-based
Description: as §1, §2

BT474 = test: Cell proliferation MTT assay; type: cell-based
Description: as §1, §2

MDA-MB-361 = test: Cell proliferation MTT assay; type: cell-based
Description: as §1, §2

T47D = test: Cell proliferation MTT assay; type: cell-based
Description: as §1, §2

CITED2 = test: Immunoblotting of CITED2 protein; type: cell-based; conditions: 10-6250 nM, 4 hours, immunoblot
Description: (§3) Cells were plated in 100 mm^2 petri dishes at a density of 1×10^6 cells/plate and allowed to grow for 3-4 days until the cells reached 80% confluency. Cells were treated with THZ1 or with vehicle control (DMSO) prior to lysing cells in RIPA buffer containing protease inhibitor cocktail and PMSF. Protein concentration was determined using BCA assay (Pierce). All lysates were prepared in biological duplicates. Protein (50 μg) was resolved on 4-20% Express-Plus PAGE gels in Tris-MOPS (SDS) running buffer (GenScript), transferred to PVDF membranes and incubated at 4° C. overnight with primary antibodies: CDK7 (sc-529, SantaCruz), ER (sc-543, SantaCruz), HER2 (#4290, Cell Signaling Technology), RNA-Pol II-S2P (C152000005, Diagenode), RNA-Pol II-S5P C152000007, RNA-Pol II-S7P (04-1570, Millipore) and RNA-Pol II (sc-900X, SantaCruz), CITED2 (MAB5005, R+D Systems), Tubulin (T-9026, Sigma), followed by anti-rabbit (#31460, ThermoFisher Scientific), anti-mouse (31430, ThermoFisher Scientific) or anti-rat (AP136P, Millipore) secondary antibodies. Bands were visualized with Western Lighting Plus ECL detection reagent (Perkin Elmer) using ChemiDoc Touch™ (BioRad). Images were analyzed and densitometry performed using ImageLab software (Biorad).

[1] = test system: PARP cleavage in MDA-MB-231, SKBR3 and JIMT-1 cells; test: Immunoblotting for PARP cleavage; type: cell-based; conditions: 250 nM, 24 and 48 hours
Description: as §3

[2] = test system: serum starved SKBR3 cells; test: EGF stimulation; type: cell-based; conditions: 100 ng/ml EGF with 250 nM THZ1, 6 hours
Description: SKBR3 cells were seeded into duplicate 6-well plates and allowed to grow until 80% confluent. The cells were then washed with PBS and the media was replaced with serum-free media overnight. After serum starvation the cells were treated with 100 ng/ml EGF with or without 250 nM THZ1 for 6 hours then lysates were collected for both RNA and protein analysis.

IC50 (SKBR3; SKBR3, 2 days, read-out: 2 day IC50): 23 nM | IC50 (SKBR3; SKBR3, 7 days, read-out: 7 day IC50): 9 nM | IC50 (MCF7; MCF7, 2 days, read-out: 2 day IC50): 32 nM | IC50 (MCF7; MCF7, 7 days, read-out: 7 day IC50): 59 nM | IC50 (BT549; BT549, 2 days, read-out: 2 day IC50): 17 nM | IC50 (BT549; BT549, 7 days, read-out: 7 day IC50): 8 nM | IC50 (MDA-MB-453; MDA-MB-453, 2 days, read-out: 2 day IC50): 133 nM | IC50 (MDA-MB-453; MDA-MB-453, 7 days, read-out: 7 day IC50): 12 nM | IC50 (MDA-MB-231; MDA-MB-231, 2 days, read-out: 2 day IC50): 159 nM | IC50 (MDA-MB-231; MDA-MB-231, 7 days, read-out: 7 day IC50): 36 nM | IC50 (HCC1954; HCC1954, 2 days, read-out: 2 day IC50): 158 nM | IC50 (HCC1954; HCC1954, 7 days, read-out: 7 day IC50): 36 nM | IC50 (HCC1937; HCC1937, 2 days, read-out: 2 day IC50): 94 nM | IC50 (HCC1937; HCC1937, 7 days, read-out: 7 day IC50): 24 nM | IC50 (BT474; BT474, 2 days, read-out: 2 day IC50): 490 nM | IC50 (BT474; BT474, 7 days, read-out: 7 day IC50): 27 nM | IC50 (MDA-MB-361; MDA-MB-361, 2 days, read-out: 2 day IC50): 133 nM | IC50 (MDA-MB-361; MDA-MB-361, 7 days, read-out: 7 day IC50): 27 nM | IC50 (T47D; 2 days, read-out: 2 day IC50): 89 nM | IC50 (T47D; 7 days, read-out: 7 day IC50): 14 nM
SMILES: CN(C)C/C=C/C(=O)Nc1ccc(C(=O)Nc2cccc(Nc3ncc(Cl)c(-c4c[nH]c5ccccc45)n3)c2)cc1 [THZ1]
BAMBI ZR751 FC (ZR751): −3.77 | CDKN1B ZR751 FC (ZR751): −2.57 | CITED2 ZR751 FC (ZR751): −2.64 | CYR61 ZR751 FC (ZR751): −1.81 | DKK1 ZR751 FC (ZR751): −4.15 | E2F8 ZR751 FC (ZR751): −4.01 | ELF3 ZR751 FC (ZR751): −1.65 | FADD ZR751 FC (ZR751): −4.12 | FBXO5 ZR751 FC (ZR751): −3.01 | MARS2 ZR751 FC (ZR751): −3.75 | MOCS3 ZR751 FC (ZR751): −4.1 | MYC ZR751 FC (ZR751): −2.98 | NEDD9 ZR751 FC (ZR751): −2.68 | PHLDA1 ZR751 FC (ZR751): −2.55 | PIM3 ZR751 FC (ZR751): −3.96 | PLK2 ZR751 FC (ZR751): −3.04 | TRIB1 ZR751 FC (ZR751): −3.54 | WEE1 ZR751 FC (ZR751): −3.25 | ZNF217 ZR751 FC (ZR751): −4.13 | ZNF627 ZR751 FC (ZR751): −3.38 | IC50 (ZR-75-1; ZR-75-1, 2 days, read-out: 2 day IC50): 286 nM | IC50 (ZR-75-1; ZR-75-1, 7 days, read-out: 7 day IC50): 50 nM | IC50 (JIMT-1; JIMT-1, 2 days, read-out: 2 day IC50): 289 nM | IC50 (JIMT-1; JIMT-1, 7 days, read-out: 7 day IC50): 87 nM | response to low nanomolar concentrations (JIMT-1; JIMT-1, <100 nM, 7 days of treatment): lack of significant response | protein expression of CITED2 (CITED2): significantly decreased | PARP cleavage [1]: induced PARP cleavage only in the SKBR3 cells | EGF induction of CITED2 expression (mRNA) [2]: prevented | EGF induction of mRNA expression of EGFR, MYC, CDKN1B, PLK2 and FOXC1 [2]: prevented | EGF-induced increase of CITED2 protein [2]: prevented
